Data: patent US20120053200A1, “BACE 2 INHIBITORS” (priority 2010, published 2012)

Molecular target: T1, BACE2 (Rattus norvegicus, UniProt Q6IE75)
T1 construct: endogenous cellular BACE2 in the Ins1e rat cell line; endogenous in cells; host or cells: INS-TMEM27 (INS1e-derived rat beta-cell line with doxycycline-inducible full-length hTMEM27)
T1 sequence (Q6IE75 63-514): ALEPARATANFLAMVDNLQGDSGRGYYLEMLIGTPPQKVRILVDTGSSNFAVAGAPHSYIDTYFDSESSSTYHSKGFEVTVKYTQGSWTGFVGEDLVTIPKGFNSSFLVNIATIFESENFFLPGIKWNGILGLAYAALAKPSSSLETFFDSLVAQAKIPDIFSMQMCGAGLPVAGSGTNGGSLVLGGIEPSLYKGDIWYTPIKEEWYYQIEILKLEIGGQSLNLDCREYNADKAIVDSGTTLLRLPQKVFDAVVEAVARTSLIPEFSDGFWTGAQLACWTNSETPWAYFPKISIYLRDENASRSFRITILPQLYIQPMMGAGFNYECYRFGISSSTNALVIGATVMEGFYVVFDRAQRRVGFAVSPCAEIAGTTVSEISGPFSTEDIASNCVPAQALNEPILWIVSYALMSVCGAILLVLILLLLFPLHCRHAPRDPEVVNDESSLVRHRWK
Assay: Assay for BACE inhibition by measuring cellular TMEM27 cleavage (INS-TMEM27 cells, ELISA of shed TMEM27)
Format: cell-based
Settings: inhibition of human TMEM27 cleavage by endogenous cellular BACE2 in INS1e-derived INS-TMEM27 rat cell line; ELISA of shed TMEM27 in supernatant
Text: Assay for […] Inhibition by Measuring Cellular TMEM27 Cleavage
This assay uses the principle of inhibition of human TMEM27 cleavage by endogenous cellular BACE2 in the Ins1e rat cell line and shedding from the cell surface into the culture medium, followed by detection in an ELISA assay. Inhibition of BACE2 prevents the cleavage and shedding in a dose-dependent manner.
The stable cell line “INS-TMEM27” represents an INS1e-derived cell line with inducible expression (using the TetOn system) of full-length hTMEM27 in a doxycycline-dependent manner. The cells were cultured throughout the experiment in RPMI1640+Glutamax (Invitrogen) Penicillin/Streptomycin, 10% Fetal bovine serum, 100 mM pyruvate, […] beta-mercatptoethanol, 100 micrograms/ml G418 and 100 microgram/ml hygromycin and were grown in adherent culture at 37° C. in a standard CO2 cell culture incubator.
INS-TMEM27 cells were seeded in 96-well plates. After 2 days in culture, BACE2 inhibitor was added in a range of concentrations as required by the assay and after a further two hours, doxycycline was added to a final concentration of 500 ng/ml. The cells were incubated for a further 46 hours and the supernatant harvested for detection of shed TMEM27.
An ELISA assay (using a pair of mouse anti-human-TMEM27 antibodies, raised against the extracellular domain of TMEM27) was used for detection of TMEM27 in the culture medium. An IC50 for BACE2 inhibition was calculated using the ELISA readout for each inhibitor concentration with standard curve-fitting software.
The inhibitory activity, given as an IC50 value, of the compounds of Examples 1 to 32 and 34 to 74 were as follows.

Molecule | IC50
Cc1cc(C(=O)N[C@@H](Cc2ccccc2)[C@H](O)CNCc2cccc(C(F)(F)F)c2)cc(C(=O)N2CCCC2c2ccccc2)c1 (stereo partly drawn) [Example 51, N-[(1S,2R)-1-Benzyl-2-hydroxy-3-(3-trifluoromethyl-benzylamino)-propyl]-3-methyl-5-(2-phenyl-pyrrolidine-1-carbonyl)-benzamide] | 0.0004 µM
Cn1ccc(C2CCCN2C(=O)c2cccc(C(=O)N[C@@H](Cc3ccccc3)[C@H](O)CNCc3cccc(C(F)(F)F)c3)c2)n1 (stereo partly drawn) [Example 14, N-[(1S,2R)-1-Benzyl-2-hydroxy-3-(3-trifluoromethyl-benzylamino)-propyl]-3-[2-(1-methyl-1H-pyrazol-3-yl)-pyrrolidine-1-carbonyl]-benzamide] | 0.063 µM
Cn1nccc1C1CCCN1C(=O)c1cccc(C(=O)N[C@@H](Cc2ccccc2)[C@H](O)CNCc2cccc(C(F)(F)F)c2)c1 (stereo partly drawn) [Example 15, N-[(1S,2R)-1-Benzyl-2-hydroxy-3-(3-trifluoromethyl-benzylamino)-propyl]-3-[2-(2-methyl-2H-pyrazol-3-yl)-pyrrolidine-1-carbonyl]-benzamide] | 0.332 µM
N-[(1S,2R)-1-Benzyl-2-hydroxy-3-(3-trifluoromethyl-benzylamino)-propyl]-3-(methanesulfonyl-methyl-amino)-5-(2-phenyl-pyrrolidine-1-carbonyl)-benzamide [Example 50] | 0.003 µM
COc1cccc(CNC[C@@H](O)[C@H](Cc2ccccc2)NC(=O)c2cccc(C(=O)N(C)Cc3nc(C)cs3)c2)c1 [Example 3, N-[(1S,2R)-1-Benzyl-2-hydroxy-3-(3-methoxy-benzylamino)-propyl]-N′-methyl-N′-(4-methyl-thiazol-2-ylmethyl)-isophthalamide] | 0.175 µM
COc1cccc(CNC[C@@H](O)[C@H](Cc2ccccc2)NC(=O)c2cccc(C(=O)N3CCCC3c3ccc(C)s3)c2)c1 (stereo partly drawn) [Example 27, N-[(1S,2R)-1-Benzyl-2-hydroxy-3-(3-methoxy-benzylamino)-propyl]-3-[2-(5-methyl-thiophen-2-yl)-pyrrolidine-1-carbonyl]-benzamide] | 0.314 µM
O=C(NCc1ccccn1)c1cccc(C(=O)N[C@@H](Cc2ccccc2)[C@H](O)CNCc2cccc(C(F)(F)F)c2)c1 [Example 7, N-[(1S,2R)-1-Benzyl-2-hydroxy-3-(3-trifluoromethyl-benzylamino)-propyl]-N′-pyridin-2-ylmethyl-isophthalamide] | 0.478 µM
CCn1cc(CNC[C@@H](O)[C@H](Cc2ccccc2)NC(=O)c2cccc(C(=O)N3CCCC3c3ccccc3)c2)cn1 (stereo partly drawn) [Example 23, N-{(1S,2R)-1-Benzyl-3-[(1-ethyl-1H-pyrazol-4-ylmethyl)-amino]-2-hydroxy-propyl}-3-(2-phenyl-pyrrolidine-1-carbonyl)-benzamide] | 0.0577 µM
O=C(N[C@@H](Cc1ccccc1)[C@H](O)CNCc1cccc(C(F)(F)F)c1)c1cccc(C(=O)N2CCC[C@H]2c2ccc(F)cc2)c1 [Example 67, N-[(1S,2R)-1-Benzyl-2-hydroxy-3-(3-trifluoromethyl-benzylamino)-propyl]-3-[(S)-2-(4-fluoro-phenyl)-pyrrolidine-1-carbonyl]-benzamide] | 0.004 µM
CN(c1cc(C(=O)N[C@@H](Cc2ccccc2)[C@H](O)CNCc2cccc(OC(F)(F)F)c2)cc(C(=O)N2CCCC2c2ccccc2)c1)S(C)(=O)=O (stereo partly drawn) [Example 42, N-[(1S,2R)-1-Benzyl-2-hydroxy-3-(3-trifluoromethoxy-benzylamino)-propyl]-3-(methanesulfonyl-methyl-amino)-5-(2-phenyl-pyrrolidine-1-carbonyl)-benzamide] | 0.062 µM
O=C(N[C@@H](Cc1ccccc1)[C@H](O)CNCc1cccc(C(F)(F)F)c1)c1cccc(C(=O)N2CCC[C@H]2Cc2ccccc2)c1 [Example 65, N-[(1S,2R)-1-Benzyl-2-hydroxy-3-(3-trifluoromethyl-benzylamino)-propyl]-3-((S)-2-benzyl-pyrrolidine-1-carbonyl)-benzamide] | 0.051 µM
O=C(N[C@@H](Cc1ccccc1)[C@H](O)CNCc1cccc(C(F)(F)F)c1)c1cccc(C(=O)N2CCCC2c2cccnc2)c1 (stereo partly drawn) [Example 13, N-[(1S,2R)-1-Benzyl-2-hydroxy-3-(3-trifluoromethyl-benzylamino)-propyl]-3-(2-pyridin-3-yl-pyrrolidine-1-carbonyl)-benzamide] | 0.068 µM
Cc1cc(C(=O)N[C@@H](Cc2ccccc2)[C@H](O)CNCc2cccc(C(F)(F)F)c2)cc(C(=O)N2CCC[C@@H]2c2nc(C)cs2)c1 [Example 49, N-[(1S,2R)-1-Benzyl-2-hydroxy-3-(3-trifluoromethyl-benzylamino)-propyl]-3-methyl-5-[(R)-2-(4-methyl-thiazol-2-yl)-pyrrolidine-1-carbonyl]-benzamide] | 0.119 µM
CCn1cc(CNC[C@@H](O)[C@H](Cc2ccccc2)NC(=O)c2cc(C)cc(C(=O)N(C)Cc3ccccn3)c2)cn1 [Example 37, N-{(1S,2R)-1-Benzyl-3-[(1-ethyl-1H-pyrazol-4-ylmethyl)-amino]-2-hydroxy-propyl}-5,N′-dimethyl-N′-pyridin-2-ylmethyl-isophthalamide] | 0.001 µM
O=C(NCc1ccccn1)c1cccc(C(=O)N[C@@H](Cc2ccccc2)[C@H](O)CNCc2cccc(OC(F)(F)F)c2)c1 [Example 6, N-[(1S,2R)-1-Benzyl-2-hydroxy-3-(3-trifluoromethoxy-benzylamino)-propyl]-N′-pyridin-2-ylmethyl-isophthalamide] | 0.52 µM
Cc1cc(C2CCCN2C(=O)c2cccc(C(=O)N[C@@H](Cc3ccccc3)[C@H](O)CNCc3cccc(C(F)(F)F)c3)c2)on1 (stereo partly drawn) [Example 16, N-[(1S,2R)-1-Benzyl-2-hydroxy-3-(3-trifluoromethyl-benzylamino)-propyl]-3-[2-(3-methyl-isoxazol-5-yl)-pyrrolidine-1-carbonyl]-benzamide] | 0.055 µM
COc1cccc(CNC[C@@H](O)[C@H](Cc2ccccc2)NC(=O)c2cccc(C(=O)N3CCCC3c3cccs3)c2)c1 (stereo partly drawn) [Example 30, N-[(1S,2R)-1-Benzyl-2-hydroxy-3-(3-methoxy-benzylamino)-propyl]-3-(2-thiophen-2-yl-pyrrolidine-1-carbonyl)-benzamide] | 0.016 µM
CCn1cc(CNC[C@@H](O)[C@H](Cc2ccccc2)NC(=O)c2cc(C(=O)N3CCCC3c3cccs3)cc(N(C)S(C)(=O)=O)c2)cn1 (stereo partly drawn) [Example 38, N-{(1S,2R)-1-Benzyl-3-[(1-ethyl-1H-pyrazol-4-ylmethyl)-amino]-2-hydroxy-propyl}-3-(methanesulfonyl-methyl-amino)-5-(2-thiophen-2-yl-pyrrolidine-1-carbonyl)-benzamide] | 0.0003 µM
O=C(N[C@@H](Cc1ccccc1)[C@H](O)CNCc1cccc(C(F)(F)F)c1)c1cccc(C(=O)N2CCCC2c2cccs2)c1 (stereo partly drawn) [Example 19, N-[(1S,2R)-1-Benzyl-2-hydroxy-3-(3-trifluoromethyl-benzylamino)-propyl]-3-(2-thiophen-2-yl-pyrrolidine-1-carbonyl)-benzamide] | 0.008 µM
Cc1cc(C(=O)N[C@@H](Cc2ccccc2)[C@H](O)CNCc2cccc(OC(F)(F)F)c2)cc(C(=O)N2CCC[C@@H]2c2nc(C)cs2)c1 [Example 10, N-[(1S,2R)-1-Benzyl-2-hydroxy-3-(3-trifluoromethoxy-benzylamino)-propyl]-3-methyl-5-[(R)-2-(4-methyl-thiazol-2-yl)-pyrrolidine-1-carbonyl]-benzamide] | 0.014 µM
O=C(N[C@@H](Cc1ccccc1)[C@H](O)CNCc1cccc(OC(F)(F)F)c1)c1cccc(C(=O)N2CCCC2c2cccnc2)c1 (stereo partly drawn) [Example 25, N-[(1S,2R)-1-Benzyl-2-hydroxy-3-(3-trifluoromethoxy-benzylamino)-propyl]-3-(2-pyridin-3-yl-pyrrolidine-1-carbonyl)-benzamide] | 0.07 µM
CCc1ccc(C2CCCN2C(=O)c2cccc(C(=O)N[C@@H](Cc3ccccc3)[C@H](O)CNCc3cccc(C(F)(F)F)c3)c2)cc1 (stereo partly drawn) [Example 62, N-[(1S,2R)-1-Benzyl-2-hydroxy-3-(3-trifluoromethyl-benzylamino)-propyl]-3-[2-(4-ethyl-phenyl)-pyrrolidine-1-carbonyl]-benzamide] | 0.764 µM
